Results taken from patent US12594263B2, “CBL inhibitors and compositions for expansion of immune cells” (Nurix Therapeutics, Inc., priority 2019, dated 2026).

What was measured:
[1] = tested on: human tumor-infiltrating lymphocytes (TIL); experiment: Expansion of TIL ex vivo from human tumor fragments (pre-REP, 24-well plate); format: cell-based; conditions: for Percentage of total cell number relative to IL-2 alone on day 17: alone or with IL-2 6000 IU/mL
Protocol: Samples of human ovarian and colon tumors were obtained from the Cooperative Human Tissue Network (CHTN, c/o Vanderbilt University Medical Center, Nashville, Tenn.). Solid tumor specimens were carefully dissected free of surrounding fatty and necrotic areas. The tumors were sliced into 8 mm^3 (2×2×2 mm^3) fragments under sterile conditions using a scalpel and a scalpel holder.
The plates were placed in a humidified 37° C. incubator with 5% CO2. Half of the medium was replaced every two days after culture initiation. […] Subsequently, half the media was replaced thrice weekly, cultures were split to maintain a cell density of 1×10^6 cells/mL. […] Mitochondrial markers including, Mitotracker, Mitoprobe, and 2-NBDG may also be used to assess differentiation and/or activation of cells.

OT-1 CD8+ T cells = experiment: Ex vivo expansion and immunophenotyping of OT-1 CD8+ T cells; format: cell-based, mouse; conditions: 1 μM, three days, plate-bound anti-CD3
Source text: Antigen specific T cells from transgenic mice can be leveraged as a model for CAR T or TIL expansion ex vivo with a Cbl inhibitor. The OT-1 transgenic animals, that are commercially available, have CD8 T cells that recognize OVA peptide aa 257-264 when presented by the MHC I molecule. CD8+ T cells from OT-1 mice were isolated from a single cell suspension of splenocytes by negative selection (StemCell Technologies cat #19853 EasySep™ Mouse CD8+ T Cell Isolation Kit). Cell were then resuspended in complete media (RPMI1640, 10% heat inactivated FBS, 1× Penicillin/Streptomycin, 1× Glutamine and β-mercaptoethanol) at concentration of 0.5×10^6 per mL. Six well tissue culture plates (Falcon) were coated with 2 ug/mL of anti-mouse CD3 (Bio Xcell Cat #BE0001-1-R100 mg InVivoMAb anti-mouse CD3ε Clone: 145-2C11) for >3 hrs at 37° C. and washed with PBS (MediaTech) prior to cell addition. […] Following three days of OT-1 T cell activation and expansion the cells were collected, counted and immunophenotyped by flow cytometry by measuring expression of differentiation and additional T cell makers including: CD3, CD4, CD8, CD45, CD25, Granzyme B, CD107a, CD127, PD-1, TIM3, LAG3, KLRG-1, ICOS, TCF1, Ki67, T-bet and FOXP3.

[2] = tested on: human T cells from peripheral blood mononuclear cells; experiment: Expansion of CMV pp65 reactive T cells from peripheral blood mononuclear cells; format: cell-based; conditions: for Percentage of total cell number relative to IL-2 alone on day 11: alone or with IL-2 2 ng/mL
Source text: At day eleven, cells were pooled and counted, and immunophenotyped at day 11 by flow cytometry by measuring expression of lineage (CD4, CD8) and differentiation (including CD45RA, CD45RO, CD95, CCR7, CD62L, TCF1, PD-1, TIM3, LAG3) markers.

breast TIL = experiment: CDR3 diversity of expanded breast TIL (iRepertoire sequencing); format: cell-based, human; conditions: 14 days in GREX 10 (FIGS. 32A-C)
Protocol: TIL were cultured for 14 days in GREX™10. […] The raw data were analyzed by iRepertoire using IRmap programs with a modified Smith-Waterman algorithm. Using CDR3algebra software, the calculation of shared CDR3s across samples with the indicated treatment was assessed. […] All CDR3 frequencies were scaled to 10 million reads to account for differences in read depth among samples. Data was normalized so that each uCDR3-VDJ combination was treated as a quantity of 1 regardless of read count, and then analyzed for V usage and J usage.

OT-1 cells = experiment: In vivo frequency, persistence and exhaustion markers of transferred OT-1 cells (blood, spleen, tumor, FACS); set-up: species or system mouse
Protocol: Dead cells were removed (Miltenyi Biotec Cat #130-090-101) prior to transfer in vivo to monitor their trafficking and function in an EG.7 lymphoma model, which expresses the OVA antigen. Approximately five million cells per mouse were transferred to mice having an average tumor burden of about 70 mm^3. Following in vivo transfer of the OT-1 cells, antitumor response was monitored over time and the quality and quantity of immune response were assessed at various time points.
The expanded OT-1 cells were characterized by FACS analysis and transferred into E.G7-OVA mice, which bear ovalbumin (OVA) expressing tumors. Following in vivo transfer of expanded OT-1 cells, antitumor response was monitored over time and the quality and quantity of immune response was assessed at various time points. Analysis included FACS analysis on blood, tumor, and spleen samples. Analysis also included re-stimulation of splenocytes with OVA Class I peptide to evaluate the multifunctionality of the antigen-specific effector T cells.
On Day 0, E.G7-OVA cells were implanted into each mouse. On Day 5, approximately 5×10^6 in vitro expanded OT-1 cells were injected into the tail of each mouse. On Day 9, blood was analyzed by FACS. On Day 14, blood, tumor and spleen samples were analyzed by FACS. On Day 27, blood was analyzed by FACS. Tumor volume was measured approximately every five days through about 50 days post implant.
OT-1 cells were expanded according to the previous examples and administered to E.G7-OVA mice, which bear ovalbumin (OVA) expressing tumors. The cells were evaluated for their in vivo properties.
Expanded OT-1 cells were assessed in blood 4 days and 22 days after transfer.
Expanded OT-1 cells were assessed in tumors 4 days after transfer.

C[C@@H]1CN(Cc2cc3c(c(C(F)(F)F)c2)CN(c2cccc(C4(Cc5nncn5C)COC4)c2)C3=O)CCC1(F)F [Compound 103]
Expansion of TIL in the absence of IL-2 ([1]; 0.1-10 μM Cbl inhibitor, no IL-2): considerable expansion of TIL
Percentage of total cell number relative to IL-2 alone on day 17 ([1]; TIL1 (ovary), 0.1 μM Cbl-i): 90%
Percentage of total cell number relative to IL-2 alone on day 17 ([1]; TIL1 (ovary), 1.0 μM Cbl-i): 75%
Percentage of total cell number relative to IL-2 alone on day 17 ([1]; TIL1 (ovary), 10 μM Cbl-i): 60%
Percentage of total cell number relative to IL-2 alone on day 17 ([1]; TIL2 (ovary), 0.1 μM Cbl-i): 30%
Percentage of total cell number relative to IL-2 alone on day 17 ([1]; TIL2 (ovary), 1.0 μM Cbl-i): 26%
Percentage of total cell number relative to IL-2 alone on day 17 ([1]; TIL2 (ovary), 10 μM Cbl-i): 22%
Percentage of total cell number relative to IL-2 alone on day 17 ([1]; TIL3 (ovary), 0.1 μM Cbl-i): 30%
Percentage of total cell number relative to IL-2 alone on day 17 ([1]; TIL3 (ovary), 1.0 μM Cbl-i): 43%
Percentage of total cell number relative to IL-2 alone on day 17 ([1]; TIL3 (ovary), 10 μM Cbl-i): 16%
Percentage of total cell number relative to IL-2 alone on day 17 ([1]; TIL4 (colon), 0.1 μM Cbl-i): 45%
Percentage of total cell number relative to IL-2 alone on day 17 ([1]; TIL4 (colon), 1.0 μM Cbl-i): 58%
Percentage of total cell number relative to IL-2 alone on day 17 ([1]; TIL4 (colon), 10 μM Cbl-i): 54%
Percentage of total cell number relative to IL-2 alone on day 17 ([1]; TIL5 (ovary), 0.1 μM Cbl-i): 50%
Percentage of total cell number relative to IL-2 alone on day 17 ([1]; TIL5 (ovary), 1.0 μM Cbl-i): 70%
Percentage of total cell number relative to IL-2 alone on day 17 ([1]; TIL5 (ovary), 10 μM Cbl-i): 90%
Percentage of total cell number relative to IL-2 alone on day 17 ([1]; TIL6 (ovary), 0.1 μM Cbl-i): 93%
Percentage of total cell number relative to IL-2 alone on day 17 ([1]; TIL6 (ovary), 1.0 μM Cbl-i): 87%
Percentage of total cell number relative to IL-2 alone on day 17 ([1]; TIL6 (ovary), 10 μM Cbl-i): 80%
Effector function of expanded OT-1 cells (granzyme and T-bet) (OT-1 CD8+ T cells): trend of increased effector function
Percentage of total cell number relative to IL-2 alone on day 11 ([2]; Donor 1, 0.1 μM Cbl-i): 12%
Percentage of total cell number relative to IL-2 alone on day 11 ([2]; Donor 1, 1.0 μM Cbl-i): 12%
Percentage of total cell number relative to IL-2 alone on day 11 ([2]; Donor 1, 10 μM Cbl-i): 44%
Percentage of total cell number relative to IL-2 alone on day 11 ([2]; Donor 2, 0.1 μM Cbl-i): 70%
Percentage of total cell number relative to IL-2 alone on day 11 ([2]; Donor 2, 1.0 μM Cbl-i): 95%
Percentage of total cell number relative to IL-2 alone on day 11 ([2]; Donor 2, 10 μM Cbl-i): 45%
Percentage of total cell number relative to IL-2 alone on day 11 ([2]; Donor 3, 1.0 μM Cbl-i): 75%
Percentage of total cell number relative to IL-2 alone on day 11 ([2]; Donor 3, 10 μM Cbl-i): 38%
Expansion of T cells in the absence of IL-2 ([2]; PBMC, no IL-2): considerable expansion of T cells
Unique CDR3s (breast TIL): increased
Cells expressing stem markers TCF1+, PD-1+ and TIM-3+ (OT-1 cells; OT-1 cells after transfer): greater percentage of cells that expressed stem markers
Frequency of OT-1 cells in total CD8+ T cells and CD45+ cells and persistence (OT-1 cells; blood, 4 or 9 days after transfer (FIG. 10)): higher frequency in total CD8+ T cells and CD45+ cells and in vivo persistence in the blood
Frequency of OT-1 cells in total CD45+ cells and persistence (OT-1 cells; blood, 4 days and 22 days after transfer (FIGS. 13A, 13B)): higher frequency in total CD45+ cells and persisted longer than cells expanded with IL-2 alone
Expression of exhaustion markers PD1, TIM3, LAG3 (OT-1 cells; tumor, versus IL-2 alone (FIGS. 14B, 14C)): lower level of expression of exhaustion markers
Tumor infiltration, frequency of OT-1 cells in total CD45+ cells (OT-1 cells; tumors, 4 days after transfer (FIG. 14A)): increased ability to infiltrate the tumor
